Ends that are not written are not given here.
System: HEK293-GLP-2R-Luc cells

Substance: HGEGTFSSELATILDALAARDFINWLIATKITDKKKKKK-NH2 [glepaglutide]
- log2 (TD/Ctrl) CACNB1 (Qvalue 4.04 × 10^−5): 1.075
- log2 (TD/Ctrl) CHAC1 (Qvalue 4.05 × 10^−4): 1.141
- log2 (TD/Ctrl) PDK4 (Qvalue 4.05 × 10^−7): 1.463
- log2 (TD/Ctrl) GUCY1A1 (Qvalue 4.19 × 10^−5): −1.107
- log2 (TD/Ctrl) SNAP25 (Qvalue 4.24 × 10^−5): 1.698
- log2 (TD/Ctrl) CALCB (Qvalue 4.28 × 10^−58): 3.658
- log2 (TD/Ctrl) PDE8B (Qvalue 4.35 × 10^−6): 1.08
- log2 (TD/Ctrl) FAM86B2 (Qvalue 4.40 × 10^−6): 1.144
- log2 (TD/Ctrl) CD55 (Qvalue 4.43 × 10^−29): 1.554
- log2 (TD/Ctrl) PDE10A (Qvalue 4.45 × 10^−11): 1.052
- log2 (TD/Ctrl) IGFBP5 (Qvalue 4.48 × 10^−29): −1.803
- log2 (TD/Ctrl) PPP1R15A (Qvalue 4.52 × 10^−19): 1.729
- log2 (TD/Ctrl) FAM131B (Qvalue 4.57 × 10^−4): 2.284
- log2 (TD/Ctrl) DCLK1 (Qvalue 4.77 × 10^−6): 1.118
- log2 (TD/Ctrl) ARC (Qvalue 4.77 × 10^−21): 2.548
- log2 (TD/Ctrl) TRMT11 (Qvalue 4.83 × 10^−7): 1.007
- log2 (TD/Ctrl) BRSK1 (Qvalue 4.84 × 10^−4): 1.033
- log2 (TD/Ctrl) CXCL8 (Qvalue 4.89 × 10^−10): 2.264
- log2 (TD/Ctrl) MMP10 (Qvalue 4.91 × 10^−4): 2.63
- log2 (TD/Ctrl) NTS (Qvalue 4.98 × 10^−8): 3.901
- log2 (TD/Ctrl) INKA2 (Qvalue 5.19 × 10^−4): −1.14
- log2 (TD/Ctrl) RSRC2 (Qvalue 5.28 × 10^−10): 1.09
- log2 (TD/Ctrl) PCDH9 (Qvalue 5.30 × 10^−8): −1.158
- log2 (TD/Ctrl) NCOA5 (Qvalue 5.31 × 10^−8): −1.2433
- log2 (TD/Ctrl) PROCR (Qvalue 5.32 × 10^−8): 1.201
- log2 (TD/Ctrl) AVPI1 (Qvalue 5.33 × 10^−8): 1.192
- log2 (TD/Ctrl) IL12A (Qvalue 5.36 × 10^−4): 1.606
- log2 (TD/Ctrl) CCN2 (Qvalue 5.36 × 10^−15): 2.558
- log2 (TD/Ctrl) PCSK1 (Qvalue 5.37 × 10^−34): 5.002
- log2 (TD/Ctrl) HSPB8 (Qvalue 5.44 × 10^−4): 1.961
- log2 (TD/Ctrl) CHGB (Qvalue 5.45 × 10^−20): 3.305
- log2 (TD/Ctrl) LY6K (Qvalue 5.54 × 10^−6): 2.444
- log2 (TD/Ctrl) TNFRSF10D (Qvalue 5.55 × 10^−11): −1.432
- log2 (TD/Ctrl) RNF122 (Qvalue 5.63 × 10^−24): 1.985
- log2 (TD/Ctrl) PAPPA (Qvalue 5.75 × 10^−4): 1.578
- log2 (TD/Ctrl) CTH (Qvalue 5.77 × 10^−13): 1.317
- log2 (TD/Ctrl) ETV5 (Qvalue 5.77 × 10^−17): 1.932
- log2 (TD/Ctrl) FOSL1 (Qvalue 5.84 × 10^−23): 3.193
- log2 (TD/Ctrl) UBE2QL1 (Qvalue 5.89 × 10^−10): 1.897
- log2 (TD/Ctrl) PCK1 (Qvalue 5.99 × 10^−8): 4.954
- log2 (TD/Ctrl) SYAP1 (Qvalue 6.03 × 10^−37): 1.501
- log2 (TD/Ctrl) ADAMTS1 (Qvalue 6.10 × 10^−16): 1.32
- log2 (TD/Ctrl) TSPAN18 (Qvalue 6.12 × 10^−5): 1.221
- log2 (TD/Ctrl) ZNF697 (Qvalue 6.15 × 10^−17): 1.651
- log2 (TD/Ctrl) NME1-NME2 (Qvalue 6.18 × 10^−4): 1.069
- log2 (TD/Ctrl) TAF1D (Qvalue 6.18 × 10^−6): 1.001
- log2 (TD/Ctrl) GAB2 (Qvalue 6.27 × 10^−10): 1.866
- log2 (TD/Ctrl) ZNF718 (Qvalue 6.33 × 10^−4): −1.3027
- log2 (TD/Ctrl) OMA1 (Qvalue 6.34 × 10^−6): −1.165
- log2 (TD/Ctrl) EPHA7 (Qvalue 6.41 × 10^−18): −1.443
- log2 (TD/Ctrl) NR4A3 (Qvalue 6.44 × 10^−8): 1.795
- log2 (TD/Ctrl) AREG (Qvalue 6.48 × 10^−5): 3.509
- log2 (TD/Ctrl) ZCCHC12 (Qvalue 6.60 × 10^−42): 2.11
- log2 (TD/Ctrl) CHMP1B (Qvalue 6.69 × 10^−14): 1.048
- log2 (TD/Ctrl) KBTBD7 (Qvalue 6.73 × 10^−6): −1.122
- log2 (TD/Ctrl) FAM200C (Qvalue 6.74 × 10^−4): −1.19
- log2 (TD/Ctrl) EGR1 (Qvalue 6.76 × 10^−10): 2.978
- log2 (TD/Ctrl) PLAUR (Qvalue 6.86 × 10^−10): 1.559
- log2 (TD/Ctrl) MAP2K6 (Qvalue 6.95 × 10^−9): −1.348
- log2 (TD/Ctrl) NR4A2 (Qvalue 7.07 × 10^−23): 2.428
- log2 (TD/Ctrl) P2RY11 (Qvalue 7.12 × 10^−9): −9.7959
- log2 (TD/Ctrl) CARMIL2 (Qvalue 7.13 × 10^−10): 1.753
- log2 (TD/Ctrl) COL7A1 (Qvalue 7.17 × 10^−4): −1.612
- log2 (TD/Ctrl) KRT17 (Qvalue 7.46 × 10^−4): 3.685
- log2 (TD/Ctrl) PTRH1 (Qvalue 7.65 × 10^−4): 1.322
- log2 (TD/Ctrl) CBARP (Qvalue 7.76 × 10^−5): 1.225
- log2 (TD/Ctrl) ZBTB12 (Qvalue 7.78 × 10^−9): −1.6
- log2 (TD/Ctrl) CGA (Qvalue 7.84 × 10^−76): 7.042
- log2 (TD/Ctrl) SERPINE2 (Qvalue 7.93 × 10^−10): 1.136
- log2 (TD/Ctrl) GABARAPL1 (Qvalue 8.03 × 10^−15): 1.405
- log2 (TD/Ctrl) COL1A1 (Qvalue 8.07 × 10^−20): 1.91
- log2 (TD/Ctrl) NDRG4 (Qvalue 8.22 × 10^−4): 1.306
- log2 (TD/Ctrl) QRICH2 (Qvalue 8.25 × 10^−6): −1.253
- log2 (TD/Ctrl) CD24 (Qvalue 8.27 × 10^−27): 2.289
- log2 (TD/Ctrl) ZNF331 (Qvalue 8.43 × 10^−12): 1.041
- log2 (TD/Ctrl) FZD4 (Qvalue 8.54 × 10^−5): −1.071
- log2 (TD/Ctrl) RGS6 (Qvalue 8.61 × 10^−5): 4.489
- log2 (TD/Ctrl) NR4A1 (Qvalue 8.67 × 10^−7): 4.426
- log2 (TD/Ctrl) BMPER (Qvalue 8.87 × 10^−4): 2.13
- log2 (TD/Ctrl) IER2 (Qvalue 9.14 × 10^−13): 1.167
- log2 (TD/Ctrl) INHBA (Qvalue 9.22 × 10^−49): 4.678
- log2 (TD/Ctrl) SERPINB9 (Qvalue 9.32 × 10^−11): 1.4
- log2 (TD/Ctrl) GADD45B (Qvalue 9.33 × 10^−42): 1.995
- log2 (TD/Ctrl) FAM111B (Qvalue 9.51 × 10^−4): −1.222
- log2 (TD/Ctrl) FHL2 (Qvalue 9.62 × 10^−6): 1.082
- log2 (TD/Ctrl) NFKB2 (Qvalue 9.77 × 10^−25): 1.551
- log2 (TD/Ctrl) EDA2R (Qvalue 9.85 × 10^−6): −1.374
- log2 (TD/Ctrl) EGR3 (Qvalue 9.86 × 10^−8): 2.228
- log2 (TD/Ctrl) LAMB3 (Qvalue 9.88 × 10^−5): 1.323
- log2 (TD/Ctrl) SAP30L (Qvalue 9.88 × 10^−7): −1.0123
- log2 (TD/Ctrl) SCARA5 (Qvalue […] 10^−12): 3.284
- log2 (TD/Ctrl) GCNA (Qvalue […] 10^−17): 1.602
- log2 (TD/Ctrl) TAC1 (Qvalue […] 10^−76): 4.689

From article PMC12073449, “Development of a Mechanism of Action-Reflective Cell-Based Reporter Gene Assay for Measuring Bioactivities of Therapeutic Glucagon-like Peptide-2 Analogues” (Molecules, 2025)
